Results taken from the NIST ThermoML archive (doi:10.1021/je900210h).
Numbers after ± are expanded uncertainties.

Details: Fluid (supercritical or subcritical phases), Coaxial cylinder method

FCC(F)(F)F [1,1,1,2-tetrafluoroethane]
Details | thermal conductivity [W/m/K]
385.18 K, 4959 kPa | 0.0526 ± 0.0021
385.18 K, 4978 kPa | 0.0528 ± 0.0022
385.18 K, 5000 kPa | 0.053 ± 0.002
385.18 K, 5022 kPa | 0.053 ± 0.002
385.18 K, 5042 kPa | 0.053 ± 0.002
385.18 K, 5058 kPa | 0.053 ± 0.002
385.18 K, 5080 kPa | 0.053 ± 0.002
385.18 K, 5100 kPa | 0.053 ± 0.002
385.18 K, 5120 kPa | 0.053 ± 0.002
385.18 K, 5151 kPa | 0.0528 ± 0.0022
385.18 K, 5179 kPa | 0.0526 ± 0.0021
385.18 K, 5224 kPa | 0.0524 ± 0.0021
385.18 K, 5254 kPa | 0.0522 ± 0.0021
385.19 K, 4900 kPa | 0.0512 ± 0.0021
385.19 K, 4918 kPa | 0.0518 ± 0.0021
385.19 K, 5296 kPa | 0.0518 ± 0.0021
385.19 K, 5322 kPa | 0.0518 ± 0.0021
385.19 K, 5358 kPa | 0.0516 ± 0.0021
385.19 K, 5402 kPa | 0.0516 ± 0.0021
385.19 K, 5454 kPa | 0.0514 ± 0.0021
385.19 K, 5513 kPa | 0.0512 ± 0.0021
385.2 K, 4880 kPa | 0.0505 ± 0.0021
385.21 K, 4840 kPa | 0.0488 ± 0.002
385.22 K, 4820 kPa | 0.048 ± 0.002
385.23 K, 4800 kPa | 0.0471 ± 0.002
385.25 K, 4760 kPa | 0.0458 ± 0.002
385.26 K, 4730 kPa | 0.0446 ± 0.0019
385.28 K, 4700 kPa | 0.0431 ± 0.0019
385.29 K, 4670 kPa | 0.0421 ± 0.002
385.3 K, 4640 kPa | 0.0411 ± 0.0019
385.31 K, 4610 kPa | 0.0401 ± 0.0018
385.33 K, 4580 kPa | 0.0393 ± 0.0018
385.34 K, 4540 kPa | 0.0382 ± 0.0017
385.36 K, 4500 kPa | 0.0371 ± 0.0017
385.37 K, 4460 kPa | 0.0363 ± 0.0017
385.39 K, 4410 kPa | 0.0352 ± 0.0016
385.41 K, 4360 kPa | 0.0343 ± 0.0016
385.42 K, 4310 kPa | 0.0335 ± 0.0016
385.57 K, 4260 kPa | 0.0328 ± 0.0015
385.59 K, 4200 kPa | 0.032 ± 0.002
385.61 K, 4120 kPa | 0.0311 ± 0.0015
385.72 K, 5700 kPa | 0.0514 ± 0.0021
385.72 K, 5714 kPa | 0.0516 ± 0.0021
385.75 K, 4060 kPa | 0.0305 ± 0.0015
385.78 K, 3920 kPa | 0.0293 ± 0.0014
387.19 K, 7800 kPa | 0.0564 ± 0.0023
387.2 K, 7501 kPa | 0.0559 ± 0.0022
387.22 K, 7002 kPa | 0.0545 ± 0.0022
387.23 K, 6650 kPa | 0.0536 ± 0.0022
387.25 K, 6371 kPa | 0.0527 ± 0.0021
387.27 K, 9502 kPa | 0.0597 ± 0.0024
387.28 K, 18006 kPa | 0.0691 ± 0.0027
387.29 K, 17000 kPa | 0.0682 ± 0.0026
387.3 K, 8468 kPa | 0.0578 ± 0.0023
387.3 K, 16290 kPa | 0.0676 ± 0.0026
387.32 K, 14910 kPa | 0.0663 ± 0.0026
387.33 K, 13500 kPa | 0.0648 ± 0.0025
387.33 K, 14002 kPa | 0.0653 ± 0.0025
387.34 K, 13000 kPa | 0.0642 ± 0.0025
387.37 K, 11008 kPa | 0.0619 ± 0.0024
387.37 K, 11503 kPa | 0.0625 ± 0.0025
392.65 K, 180 kPa | 0.02136 ± 0.0012
394.44 K, 6457 kPa | 0.0507 ± 0.0021
394.44 K, 6523 kPa | 0.0509 ± 0.0021
394.44 K, 6557 kPa | 0.0511 ± 0.0021
394.45 K, 6140 kPa | 0.0494 ± 0.002
394.45 K, 6200 kPa | 0.0496 ± 0.0021
394.45 K, 6260 kPa | 0.0498 ± 0.0021
394.45 K, 6300 kPa | 0.05 ± 0.002
394.45 K, 6399 kPa | 0.0503 ± 0.0021
394.46 K, 5940 kPa | 0.0483 ± 0.002
394.46 K, 5980 kPa | 0.0487 ± 0.002
394.46 K, 6044 kPa | 0.0491 ± 0.002
394.46 K, 6100 kPa | 0.0492 ± 0.002
394.47 K, 5760 kPa | 0.0472 ± 0.002
394.47 K, 5767 kPa | 0.0472 ± 0.002
394.47 K, 5800 kPa | 0.0476 ± 0.002
394.47 K, 5811 kPa | 0.0476 ± 0.002
394.47 K, 5851 kPa | 0.048 ± 0.002
394.47 K, 5886 kPa | 0.048 ± 0.002
394.49 K, 5583 kPa | 0.0453 ± 0.0019
394.49 K, 5626 kPa | 0.0457 ± 0.0019
394.49 K, 5641 kPa | 0.046 ± 0.002
394.5 K, 5527 kPa | 0.0444 ± 0.0019
394.52 K, 5428 kPa | 0.043 ± 0.002
394.53 K, 5366 kPa | 0.0419 ± 0.0018
394.54 K, 5314 kPa | 0.0411 ± 0.0018
394.55 K, 5300 kPa | 0.0409 ± 0.0018
394.56 K, 5246 kPa | 0.04 ± 0.002
394.56 K, 6908 kPa | 0.0519 ± 0.0021
394.56 K, 7067 kPa | 0.0523 ± 0.0021
394.57 K, 5176 kPa | 0.039 ± 0.002
394.57 K, 6665 kPa | 0.0513 ± 0.0021
394.57 K, 6720 kPa | 0.0515 ± 0.0021
394.57 K, 6754 kPa | 0.0515 ± 0.0021
394.57 K, 6800 kPa | 0.0515 ± 0.0021
394.6 K, 5055 kPa | 0.0374 ± 0.0017
394.68 K, 7457 kPa | 0.0533 ± 0.0022
394.68 K, 7521 kPa | 0.0535 ± 0.0022
394.68 K, 7635 kPa | 0.0537 ± 0.0022
394.69 K, 7159 kPa | 0.0526 ± 0.0021
394.69 K, 7321 kPa | 0.0528 ± 0.0022
394.81 K, 7706 kPa | 0.0538 ± 0.0022
394.81 K, 7827 kPa | 0.0541 ± 0.0022
394.88 K, 4950 kPa | 0.036 ± 0.002
394.88 K, 4978 kPa | 0.0363 ± 0.0016
394.89 K, 4890 kPa | 0.0353 ± 0.0016
394.91 K, 4821 kPa | 0.0346 ± 0.0016
394.93 K, 4722 kPa | 0.0335 ± 0.0016
394.94 K, 4649 kPa | 0.0328 ± 0.0015
394.95 K, 4583 kPa | 0.0322 ± 0.0015
395.23 K, 4495 kPa | 0.0315 ± 0.0015
395.24 K, 4405 kPa | 0.0309 ± 0.0015
403.68 K, 7203 kPa | 0.0484 ± 0.002
403.69 K, 7105 kPa | 0.048 ± 0.002
403.69 K, 7364 kPa | 0.049 ± 0.002
403.82 K, 6973 kPa | 0.0475 ± 0.002
403.83 K, 6852 kPa | 0.0468 ± 0.002
404.23 K, 6723 kPa | 0.046 ± 0.002
404.23 K, 6754 kPa | 0.0461 ± 0.0019
404.34 K, 6434 kPa | 0.044 ± 0.002
404.34 K, 6516 kPa | 0.0446 ± 0.0019
404.36 K, 6559 kPa | 0.0449 ± 0.0019
404.36 K, 6640 kPa | 0.0453 ± 0.0019
404.38 K, 6342 kPa | 0.0433 ± 0.0019
404.4 K, 6039 kPa | 0.041 ± 0.002
404.4 K, 6080 kPa | 0.0413 ± 0.0018
404.42 K, 5967 kPa | 0.0402 ± 0.0018
404.43 K, 5860 kPa | 0.0393 ± 0.0017
404.43 K, 5908 kPa | 0.0396 ± 0.0017
404.44 K, 5814 kPa | 0.0388 ± 0.0017
404.45 K, 5750 kPa | 0.0383 ± 0.0017
404.46 K, 5668 kPa | 0.0375 ± 0.0017
404.47 K, 5579 kPa | 0.0368 ± 0.0017
404.48 K, 5494 kPa | 0.0361 ± 0.0016
404.49 K, 5419 kPa | 0.0355 ± 0.0016
404.5 K, 5330 kPa | 0.0349 ± 0.0016
404.51 K, 5242 kPa | 0.0342 ± 0.0016
404.65 K, 5162 kPa | 0.0336 ± 0.0016
404.67 K, 5039 kPa | 0.0329 ± 0.0015
404.68 K, 4909 kPa | 0.0321 ± 0.0015
404.7 K, 4754 kPa | 0.0312 ± 0.0015
404.71 K, 4641 kPa | 0.0307 ± 0.0015
404.73 K, 4451 kPa | 0.0298 ± 0.0014
404.73 K, 4467 kPa | 0.0298 ± 0.0014
404.73 K, 4523 kPa | 0.0301 ± 0.0014
404.76 K, 4201 kPa | 0.0287 ± 0.0014
404.76 K, 4278 kPa | 0.029 ± 0.002
404.77 K, 4070 kPa | 0.0283 ± 0.0014
405.05 K, 3914 kPa | 0.0278 ± 0.0014
405.06 K, 3790 kPa | 0.0274 ± 0.0014
405.07 K, 3698 kPa | 0.0271 ± 0.0014
405.25 K, 2700 kPa | 0.0252 ± 0.0013
405.25 K, 2863 kPa | 0.0254 ± 0.0013
405.26 K, 2524 kPa | 0.0249 ± 0.0013
405.27 K, 2343 kPa | 0.0247 ± 0.0013
405.34 K, 3411 kPa | 0.0264 ± 0.0013
405.46 K, 8835 kPa | 0.0521 ± 0.0021
405.47 K, 8558 kPa | 0.0515 ± 0.0021
405.48 K, 7814 kPa | 0.0499 ± 0.0021
405.49 K, 7506 kPa | 0.049 ± 0.002
405.81 K, 1930 kPa | 0.0243 ± 0.0013
406.09 K, 1196 kPa | 0.0236 ± 0.0013
406.88 K, 18500 kPa | 0.0652 ± 0.0025
406.9 K, 16345 kPa | 0.063 ± 0.003
406.91 K, 15679 kPa | 0.0623 ± 0.0025
406.93 K, 14350 kPa | 0.0608 ± 0.0024
406.94 K, 13921 kPa | 0.0603 ± 0.0024
406.96 K, 12915 kPa | 0.0591 ± 0.0024
406.99 K, 11426 kPa | 0.0569 ± 0.0023
407 K, 10911 kPa | 0.0562 ± 0.0023
407.01 K, 10638 kPa | 0.0557 ± 0.0022
426.86 K, 160 kPa | 0.02469 ± 0.0013
436.44 K, 180 kPa | 0.02542 ± 0.0013
446.25 K, 200 kPa | 0.02665 ± 0.0014
446.25 K, 760 kPa | 0.02661 ± 0.0014
451.17 K, 180 kPa | 0.02683 ± 0.0014
455.69 K, 100 kPa | 0.0268 ± 0.0014
455.92 K, 680 kPa | 0.02719 ± 0.0014
466.31 K, 650 kPa | 0.02846 ± 0.0014
476.24 K, 100 kPa | 0.02922 ± 0.0014
496.18 K, 100 kPa | 0.0311 ± 0.0015
515.97 K, 100 kPa | 0.03304 ± 0.0015
